Values joined by “and” are separate entries in the source; they are usually repeats but may differ in a detail not shown here. Equal entries are not always repeated.
Key:
[1] = test system: clinical HIV isolate ROJO in fresh human PBMCs; experiment: PBMC/ROJO reverse transcriptase activity assay; assay type: cell-based; settings: qualitative; PHA blastogenesis
Experimental: A microtiter based reverse transcriptase (RT) reaction was utilized. Tritiated thymidine triphosphate (NEN) (TTP) was resuspended in distilled H2O at 5 Ci/ml. Poly rA and oligo dT were prepared as a stock solution which was kept at −20° C. The RT reaction buffer was prepared fresh on a daily basis and consists of 125 μl MEGTA, 125 μl dH2O, 125 μl Triton X-100, 50 μl 1M Tris (pH 7.4), 50 μl MDTT, and 40 μl MMgCl2. These three solutions were mixed together in a ratio of 1 parts TTP, 2.5 parts poly rA:oligo dT, 2.5 parts reaction, the reaction buffer and 4 parts distilled water. Ten microliters of this reaction mixture was placed in a round bottom microtiter plate and 15 μl of virus containing supernatant was added and mixed. The plate was incubated at 37° C. and incubated for 60 minutes. […] Incorporated radioactivity was quantitated utilizing a Wallac Microbeta scintillation counter. […]
In the standard PBL assay (MOI: 0.2), the assay was ended on day 7 following collection of cell free supernatant samples for reverse transcriptase activity assay. In the low MOI PBL assay (MOI: 0.02), supernatant samples were collected on day 6, day 11, and day 14 post-infection and analyzed for […]. […]

[2] = test system: HIV-1 clinical isolate ADA in fresh human monocyte-macrophages; experiment: Anti-HIV monocyte-macrophage assay (p24 ELISA); assay type: cell-based; settings: for P-24 Activity: vs. ADA
Experimental: ELISA kits were purchased from Coulter. The assay is performed according to the manufacturer's recommendations. Prior to ELISA analysis, the reverse transcriptase activity assays were routinely performed and the values were used for incorporated radioactivity in the RT activity assay to determine the dilution of samples required for the ELISA. Control curves were generated in each assay to accurately quantititate the amount of capsid protein in each sample. Data was obtained by spectrophotometric analysis at 450 nm using a Molecular Devices Vmax plate reader. P24 concentrations were calculated from the optical density values by use of the Molecular Devices software package Soft Max.
For isolation of a adherent cells, 3×10^6 non-PHA stimulated peripheral blood cells were resuspended in Hanks buffered saline with calcium and magnesium supplemented with 10% human AB serum. The cells were placed in a 24-well microtiter plate at 37° C. for 2 hours. Non-adherent cells were removed by vigorously washing six times. The adherent cells were cultured for 7 days in RPM1 1640 tissue culture medium with 15% fetal bovine serum. The cultures were carefully monitored for confluency during this incubation period. Infection of the cells was performed with the monocytotropic HIV-1 strains BaL or ADA and the matched pair of AZT-sensitive and AZT-resistant virus isolates. Each of these virus isolates was obtained from the NLAID AIDS Research and Reference Reagent Program. High titer pools of each of these viruses have been harvested from infected cultures of peripheral blood adherent cells and frozen in 1.0 ml aliquots at −80° C. Monocyte-macrophage monolayers were infected at an MOI of 0.1. […] Compounds to be evaluated in the monocyte-macrophage assay were added to the monolayers shortly before infection in order to maximize the potential for identifying active compounds.
At two days post-infection, the medium was decanted and the cultures washed twice with complete medium in order to remove excess virus. Fresh medium alone or medium containing the appropriate concentration of drugs was added and incubation continued for an additional 5 days. XTT-tetrazolium or trypan blue exclusion assays for cell viability and HIV p24 ELISA assays for production of p24 core antigen were performed on Day 7 post-infection. ELISA kits were purchased from Coulter. Control curves were generated in each assay to accurately quantitate the amount of capsid protein in each sample. Data was obtained by spectrophotometric analysis at 450 nm using a Molecular Devices Vmax plate reader. P24 concentrations were calculated from the optical density values by use of the Molecular Device software package Soft Max.

Cc1cn([C@H]2C[C@H](N=[N+]=[N-])[C@@H](CO)O2)c(=O)[nH]c1=O [AZT, zidovudine]
inhibition of replication of isolate ROJO in fresh human PBMCs [1]: expected level of activity
activity in monocyte-macrophages infected with ADA ([2]; qualitative): expected level of activity
P-24 Activity ([2]; 0.0004 μM): 1005.00 pg/mL and 1252.00 pg/mL and 954.10 pg/mL and 1097.00 pg/mL and 1160.00 pg/mL and 1098.00 pg/mL
P-24 Activity ([2]; 0.0014 μM): 919.00 pg/mL and 1150.00 pg/mL and 678.70 pg/mL and 821.90 pg/mL and 594.80 pg/mL and 983.10 pg/mL
P-24 Activity ([2]; 0.004 μM): 470.80 pg/mL and 660.90 pg/mL and 912.30 pg/mL and 914.90 pg/mL and 891.20 pg/mL and 499.20 pg/mL
